Where two headings read alike, the source gives them in different places.
Legend:
[1] = system: C57BL/6 mice fed a Paigen diet; test: Paigen diet fed mice: serum, liver gene expression and liver histology; format: in vivo; settings: 30 mg/kg orally once a day for 4 weeks
Protocol: Male C57BL/6 mice were fed a standard chow diet or a Paigen diet (TestDiet 32350 containing 7.5% Cocoa Butter, 1.25% cholesterol, and 0.5% cholic acid). Paigen diet fed mice were administered vehicle or 30 mg/kg FXR agonist, Compound A (isopropyl 3-(3,4-difluorobenzoyl)-1,1-dimethyl-1,2,3,6-tetrahydroazepino[4,5-b]indole-5-carboxylate) orally once a day for 4 weeks. Three hours after the final treatment, mice were euthanized and blood and liver were collected for analyses.
Real-time RT PCR analysis of liver RNA was performed. FIGS. 3A, 3B, and 3C show the expression levels of vascular cell adhesion molecule 1 (VCAM-1), intercellular adhesion molecule-1 (ICAM-1), and tumor necrosis factor α (TNFα). Expression levels were normalized to GAPDH, and the mean level of expression of each gene in mice fed a standard chow diet was defined as 1.0. 6 mice were tested in each group. Data are presented as the mean±SE.
Male C57BL/6 mice were fed a chow diet or a Paigen diet. Paigen fed mice were administered vehicle or 30 mg/kg Compound A orally once a day for 4 weeks. Three hours after the final treatment, mice were euthanized, and histological analysis of livers was performed. Frozen liver sections (5 μm) were prepared and stained with Oil Red O, hematoxylin and eosin (H&E), and Masson's trichrome (Trichrome).
Male C57BL/6 mice were fed a chow diet or a Paigen diet. Paigen fed mice were administered vehicle or 30 mg/kg Compound A orally once a day for 4 weeks. Three hours after the final treatment, mice were euthanized, and real-time RT PCR analysis of liver RNA was performed.

mice fed a Paigen diet [2] = test: Gallstone formation in Paigen diet fed mice; format: in vivo; settings: 30 mg/kg orally once a day for 4 weeks
Protocol: To study gallstone formation, gallbladders were harvested from mice fed a Paigen diet and administered vehicle or 30 mg/kg Compound A orally once a day for 4 weeks.

mice fed a Paigen diet [3] = test: Gallbladder bile lipid composition, Paigen diet with treatment; format: in vivo
Protocol: (§1) Disrupted cholesterol, phospholipid, and bile salt homeostasis contributes to the formation of gallstones. Gallbladder bile lipid composition was quantitated from mice treated as follows. A group of mice (CHOW) was fed a standard chow diet. Another group of mice was fed a Paigen diet and administered vehicle (Paigen/Vehicle) or 30 mg/kg Compound A (Paigen/Compound A) orally once a day for 4 weeks. To preform gallstones, mice were fed initially a Paigen diet for 4 weeks and subsequently fed a standard chow diet and administered vehicle (Preformed/Vehicle) or 30 mg/kg Compound A (Preformed/Compound A) orally once a day for 4 weeks. […] Data are presented as the mean±SE.

[4] = system: mice with preformed gallstones; test: Gallbladder bile lipid composition, preformed gallstones; format: in vivo
Protocol: as §1

Hep3B cells [5] = test: IL-6 induced CRP secretion in Hep3B cells; format: cell-based, Human; settings: for IC50: Homo sapiens, Hep3B, read-out: IC50 of inhibitory effect on CRP secretion
Protocol: (§2) Human hepatoma cells, Hep3B secrete the acute phase protein, C-reactive protein (CRP) upon IL-6 treatment. Cells were cotreated with Compound A to determine if Compound A could decrease IL-6 induced CRP secretion.
FIGS. 24A, 24B, and 24C show the levels of CRP secretion (pg/ml) in Hep3B cells after stimulation with IL-6 (10 ng/ml), or IL-6 (50 ng/ml), or IL-6 (10 ng/ml & IL-1β 20 ng/ml), and treated with vehicle (DMSO) or Compound A (5 μM). […] (*P<0.001, Hep3B/DMSO vs. Hep3B/Compound A).

Hep3B cells [6] = test: IL-6 induced CRP gene expression in Hep3B cells; format: cell-based, Human; settings: Compound A 1 μM; IL-6 10 ng/ml or 50 ng/ml; P<0.001 vs DMSO
Protocol: as §2
FIGS. 26A and 26B show the CRP gene expression level in Hep3B cells stimulated with IL-6 (10 ng/ml or 50 ng/ml), and treated with vehicle (DMSO) or Compound A (1 μM). […] (*P<0.001, Hep3B/DMSO vs. Hep3B/Compound A).

[7] = system: Wildtype mice challenged with LPS; test: LPS-induced liver acute phase response, wildtype mice; format: in vivo; settings: 30 mg/kg for 4 days; 2.5 micrograms LPS, 4 hours; P<0.01
Protocol: (§3) Wildtype and FXR deficient mice were treated with Compound A (30 mg/kg) or vehicle for 4 days. On day 4, mice were challenged with 2.5 micrograms of lipopolysaccharide (LPS) to induce an acute phase response. After 4 hours, the mice were euthanized and their livers were harvested for analysis of expression of various factors. […] Compound A attenuated the LPS-induced murine liver acute phase response. […] (*P<0.01, WT/LPS/V vs. WT/LPS/Compound A).

[8] = system: FXRKO mice challenged with LPS; test: LPS-induced liver acute phase response, FXR deficient mice; format: in vivo; settings: 30 mg/kg for 4 days; LPS treated FXRKO mice
Protocol: as §3

[9] = RT PCR, normalized to GAPDH, p<0.0001
[10] = Paigen/Compound A vs Paigen/Vehicle
[11] = Paigen/Compound A, 30 mg/kg orally once a day for 4 weeks, mean±SE
[12] = Preformed/Compound A vs Preformed/Vehicle
[13] = Preformed/Compound A, Paigen diet 4 weeks, then chow and 30 mg/kg orally once a day for 4 weeks, mean±SE

Structure (SMILES): CC(C)OC(=O)C1=CN(C(=O)c2ccc(F)c(F)c2)CC(C)(C)c2c1[nH]c1ccccc21 [Compound A, isopropyl 3-(3,4-difluorobenzoyl)-1,1-dimethyl-1,2,3,6-tetrahydroazepino[4,5-b]indole-5-carboxylate]
- Paigen diet induced liver damage (histological analyses) [1]: attenuated Paigen diet induced liver damage
- intracellular vacuoles characteristic of lipid droplets in liver (H&E and Trichrome) [1]: reduced the number and severity of the vacuoles
- liver BSEP expression level, increase ([1]; Paigen diet): 2.41 fold
- liver MDR2 expression level, increase ([1]; Paigen diet): 1.4 fold
- liver SHP expression level, increase ([1]; Paigen diet): 4.85 fold
- liver ICAM-1 expression level (Paigen diet induction) [1, 9]: significantly inhibited
- liver TNFα expression level (Paigen diet induction) [1, 9]: significantly inhibited
- liver VCAM-1 expression level (Paigen diet induction) [1, 9]: significantly inhibited
- inflammatory cholangitis with portal inflammation in liver ([1]; histology): significantly more severe in the livers of vehicle treated compared to Compound A treated mice
- serum alanine aminotransferase (ALT) activity level ([1]; mean±SE, vehicle 292.1±33.6 U/L, p<0.0001): 98.1±22.5 U/L
- serum level of MCP-1 vs vehicle ([1]; p<0.0001): significantly reduced
- neutral lipid accumulation in the liver (Oil Red O staining) ([1]; vs vehicle): reduction in neutral lipid accumulation
- liver FAS expression, further induction ([1]; vs vehicle treated Paigen diet mice, p<0.0001): 2.4 fold
- cholesterol gallstones in gallbladders (gross morphology) (mice fed a Paigen diet [2]): clearly visible in the gallbladders of vehicle but not Compound A treated mice
- Gallstone formation (incidence, mice with gallstones/mice) (mice fed a Paigen diet [2]; vehicle 14/19): 0/20
- incidence of gallstone formation (mice fed a Paigen diet [2]; vehicle 73.7%): 0%
- bile cholesterol level increase induced by the Paigen diet, vs vehicle (mice fed a Paigen diet [3]; [10]): attenuated the increases
- bile phospholipid level increase induced by the Paigen diet, vs vehicle (mice fed a Paigen diet [3]; [10]): attenuated the increases
- BS (bile salt) in gallbladder bile (mice fed a Paigen diet [3]; [11]): 110.42 ± 24.79 mM
- CE (cholesterol) in gallbladder bile (mice fed a Paigen diet [3]; [11]): 7.70 ± 0.28 mM
- PL (phospholipids) in gallbladder bile (mice fed a Paigen diet [3]; [11]): 20.19 ± 1.00 mM
- bile cholesterol level vs vehicle [4, 12]: higher
- bile phospholipid level vs vehicle [4, 12]: higher
- bile salt level vs vehicle [4, 12]: Lower
- BS (bile salt) in gallbladder bile [4, 13]: 120.06 ± 14.28 mM
- CE (cholesterol) in gallbladder bile [4, 13]: 7.54 ± 0.86 mM
- PL (phospholipids) in gallbladder bile [4, 13]: 27.54 ± 2.14 mM
- bile salt/phospholipid ratio vs vehicle ([4]; mice with preformed gallstones): significantly decreased
- IL-6 induced CRP secretion (Hep3B cells [5]; Compound A 5 μM, IL-6 10 ng/ml, IL-6 50 ng/ml, or IL-6 10 ng/ml & IL-1β 20 ng/ml, P<0.001 vs DMSO): inhibited
- IC50 (Hep3B cells [5]; 10 ng/ml of IL-6): 0.224 µM
- IC50 (Hep3B cells [5]; 50 ng/ml IL-6): 0.22 µM
- IL-6 induced CRP mRNA levels (Hep3B cells [6]): reduced
- reduction of liver SAA-3 levels vs vehicle [7]: 35%
- reduction of liver SAP levels vs vehicle [7]: 40%
- reduction of liver VCAM-1 levels vs vehicle [7]: 40%
- liver SAA-3 levels [8]: not significantly altered
- liver SAP levels [8]: not significantly altered
- liver VCAM-1 levels [8]: not significantly altered

From patent US20090163474A1, “FXR Agonists for the Treatment of Nonalcoholic Fatty Liver and Cholesterol Gallstone Diseases” (Wyeth, priority 2007, published 2009)
